Tested on: S. carnosus TM300
Experiment: RNAseq differential gene expression
Type: cell-based, Staphylococcus carnosus
Protocol: For the RNAseq experiments, epilancin was added at sub-lethal concentration (0.5x MIC) to S. carnosus TM300 once the cultures reached an OD600 of 0.6. RNA was extracted 40 min after the treatment, using a FastRNA Pro Blue kit (MP Biomedicals). Both treated and parallel untreated samples were collected at the same time. Sequencing was performed at the Carver Biotechnology Center (UIUC). For RNAseq analysis, gene counts were read in to R (v3.1.1; [Team, 2014]), and 14/2441 genes were removed because they had fewer than 32 total counts across the six samples. edgeR’s (v3.6.7) TMM normalization ([Robinson and Oshlack, 2010]) plus negative binomial generalized log-linear model ([McCarthy et al., 2012]) was used to test for differential expression between treated and untreated groups, while accounting for pairing of U and T replicates from three different cultures. p-values were adjusted using the false discovery rate method ([Benjamini and Hochberg, 1995]).

[1] = AraC family transcriptional regulator
[2] = S. carnosus TM300, 0.5x MIC, RNA extracted 40 min after treatment

Epilancin 15X
fold_change Sca_0118: 2.03 | fold_change Sca_0226: 2.6 | fold_change Sca_0277: 4.82 | fold_change Sca_0326: 2.89 | fold_change Sca_0702: 3.4 | fold_change Sca_1839: 2.65 | fold_change Sca_0283 (4-aminobutyrate aminotransferase): 2.6 | fold_change Sca_1048 (5-bromo-4-chloroindolyl phosphate hydrolysis protein XpaC): 2.07 | fold_change rpsN (30S ribosomal protein S14): 0.49 | fold_change rplS (50S ribosomal protein L19): 0.5 | fold_change Sca_1439 (ABC transporter ATP-binding protein): 2.23 | fold_change Sca_0292 (ATP-binding cassette transporter A): 2.29 | fold_change clpP (ATP-dependent Clp protease proteolytic subunit): 5.08 | fold_change recG (ATP-dependent DNA helicase RecG): 2.72 | fold_change Sca_0180 (ATP:guanido phosphotransferase): 4.91 | fold_change Sca_0313 [1]: 2.06 | fold_change Sca_0314 [1]: 2.39 | fold_change Sca_0315 [1]: 2.4 | fold_change Sca_0113 (ArsR family transcription regulator): 4.25 | fold_change clpB (ClpB chaperone): 10.1 | fold_change clpC (ClpC ATPase family protein): 4.95 | fold_change dltA (D-alanine--poly(phosphoribitol) ligase subunit 1): 2.2 | fold_change dltC (D-alanine--poly(phosphoribitol) ligase subunit 2): 2.03 | fold_change dnaN (DNA polymerase III subunit beta): 2.14 | fold_change dinB (DNA polymerase IV, gene dinP): 2.92 | fold_change dltB (DltB membrane protein): 2.19 | fold_change Sca_2272 (Glycerate kinase): 2.24 | fold_change Sca_0776 (Glyoxalase family protein): 2.76 | fold_change hslO (Hsp33-like chaperonin, gene hsp33): 2.39 | fold_change Sca_0214 (LD-carboxypeptidase family protein): 0.5 | fold_change lexA (LexA repressor): 2.01 | fold_change Sca_0115 (LysR family transcriptional regulator): 2.11 | fold_change moaD (MoaD): 2.46 | fold_change moaE (MoaE): 2.53 | fold_change mobB (MobB): 2.72 | fold_change moaA (Molybdenum cofactor biosynthesis protein A): 2.82 | fold_change nanA (N-acetylneuraminate lyase): 2.13 | expression of vraR, upregulated compared to untreated control [2]: 8 fold | expression of vraS, upregulated compared to untreated control [2]: 8 fold | fold_change Sca_0453 (TOPRIM domain-containing protein): 3.05 | fold_change Sca_2234 (TetR family transcriptional regulator): 2.13 | fold_change Sca_2397 (ThiJ/PfpI family protein): 4.76 | fold_change gtaB (UTP-glucose-1-phosphate uridyltransferase): 0.5 | fold_change Sca_0065 (acetoin reductase): 4.35 | fold_change mecA (adaptor protein, gene SCA_0598): 2.48 | fold_change glpD (aerobic glycerol-3-phosphate dehydrogenase): 2.81 | fold_change Sca_2335 (alcohol dehydrogenase, zinc-containing, gene gutB): 2.81 | fold_change ahpC (alkyl hydroperoxide reductase subunit C): 5.8 | fold_change ahpF (alkyl hydroperoxide reductase subunit F): 5.74 | fold_change lrgB (antiholin-like protein LrgB): 5.42 | fold_change capM (capsular polysaccharide synthesis enzyme Cap5M): 0.49 | fold_change katA (catalase): 2.04 | fold_change dnaJ (chaperone protein DnaJ): 2.06 | fold_change uvrA (excinuclease ABC subunit A): 3.06 | fold_change uvrB (excinuclease ABC subunit B): 3.63 | fold_change uvrC (excinuclease ABC subunit C): 2.28 | fold_change Sca_1475 (formate dehydrogenase): 2.72 | fold_change fdh (formate dehydrogenase): 3.34 | fold_change (gene SCA_0282 (thrS), threonyl-tRNA synthetase): 0.44 | fold_change (gene Sca_0027 (ssb), putative single-strand DNA-binding protein): 0.48 | fold_change (gene Sca_0095, putative autolysin with LysM domain): 0.47 | fold_change (gene Sca_0210, Choloylglycine hydrolase family protein): 0.42 | fold_change (gene Sca_0261, FecCD transport family protein): 0.48 | fold_change (gene Sca_0273, putative lipoprotein, AdhesinB family protein): 0.41 | fold_change (gene Sca_0274, putative ABC transporter permease): 0.44 | fold_change (gene Sca_0348 (fruA), putative fructose specific permease): 0.49 | fold_change (gene Sca_0374, putative proton-dependent oligopeptide transporter): 0.43 | fold_change (gene Sca_0418, putative branched-chain amino acid transport system II carrier protein): 0.4 | fold_change (gene Sca_0437 (csp), putative cold-shock protein): 0.43 | fold_change (gene Sca_0445, hypothetical protein): 0.43 | fold_change (gene Sca_0446, hypothetical protein): 0.45 | fold_change (gene Sca_0547, cytosol aminopeptidase family protein): 0.42 | fold_change (gene Sca_0617, hypothetical protein): 0.45 | fold_change (gene Sca_0626, putative sodium transport protein): 0.4 | fold_change (gene Sca_0661): 0.41 | fold_change (gene Sca_0724, putative DNA binding protein): 0.44 | fold_change (gene Sca_0743, hypothetical protein): 0.4 | fold_change (gene Sca_0749, hypothetical protein): 0.48 | fold_change (gene Sca_0919, hypothetical protein): 0.44 | fold_change (gene Sca_0920, hypothetical protein): 0.46 | fold_change (gene Sca_0975, putative amino acid permease): 0.46 | fold_change (gene Sca_0984, hypothetical protein): 0.41 | fold_change (gene Sca_1053, hypothetical protein): 0.47 | fold_change (gene Sca_1134, hypothetical protein): 0.45 | fold_change (gene Sca_1194, hypothetical protein): 0.48 | fold_change (gene Sca_1195): 0.43 | fold_change (gene Sca_1364 (leuS''), leucyl-tRNA synthetase (fragment 2)): 0.47 | fold_change (gene Sca_1365 (leuS'), leucyl-tRNA synthetase (fragment 1)): 0.4 | fold_change (gene Sca_1388, hypothetical protein): 0.46 | fold_change (gene Sca_1421, hypothetical protein): 0.46 | fold_change (gene Sca_1425, hypothetical protein): 0.45 | fold_change (gene Sca_1427, hypothetical protein): 0.41 | fold_change (gene Sca_1433, hypothetical protein): 0.44 | fold_change (gene Sca_1450, hypothetical protein): 0.41 | fold_change (gene Sca_1584, hypothetical protein): 0.47 | fold_change (gene Sca_1777, hypothetical protein): 0.41 | fold_change (gene Sca_1794, hypothetical protein): 0.43 | fold_change (gene Sca_1832, hypothetical protein): 0.42 | fold_change (gene Sca_1870, hypothetical protein): 0.45 | fold_change (gene Sca_1880, hypothetical protein): 0.46 | fold_change (gene Sca_1922, putative integral membrane efflux protein): 0.41 | fold_change (gene Sca_1980, putative L-serine dehydratase beta chain): 0.42 | fold_change (gene Sca_1997, hypothetical protein): 0.49 | fold_change (gene Sca_2043, hypothetical protein): 0.46 | fold_change (gene Sca_2184, hypothetical protein): 0.4 | fold_change (gene Sca_2345, hypothetical protein): 0.41 | fold_change (gene Sca_2346, putative capsular polysaccharide biosynthesis protein): 0.41 | fold_change (gene Sca_2352, hypothetical protein): 0.48 | fold_change (gene Sca_2411): 0.47 | fold_change (gene apbA, putative 2-dehydropantoate 2-reductase): 0.47 | fold_change (gene aspS, aspartyl-tRNA synthetase): 0.43 | fold_change (gene atpD, F0F1 ATP synthase subunit beta): 0.41 | fold_change (gene capB, capsular polysaccharide biosynthesis protein): 0.43 | fold_change (gene ctaB, protoheme IX farnesyltransferase): 0.41 | fold_change (gene cysE, serine acetyltransferase): 0.46 | fold_change (gene deoD, purine nucleoside phosphorylase): 0.48 | fold_change (gene engB (SCA_1279), ribosome biogenesis GTP-binding protein YsxC): 0.47 | fold_change (gene fbp, putative fructose-bisphosphatase): 0.41 | fold_change (gene fecB, putative ferrichrome ABC transporter (binding protein)): 0.42 | fold_change (gene fruB, putative fructose 1-phosphate kinase): 0.42 | fold_change (gene gcvH (gcdH), glycine cleavage system protein H): 0.45 | fold_change (gene gcvPB' (gcvPB''), glycine dehydrogenase [decarboxylating] subunit 2(fragment 1)): 0.43 | fold_change (gene gntR, putative gluconate operon transcriptional repressor): 0.47 | fold_change (gene gudB, NAD-specific glutamate dehydrogenase): 0.47

Source: article PMC10652874, “Investigation into the mechanism of action of the antimicrobial peptide epilancin 15X” (Frontiers in Microbiology, 2023)
